Three compounds from patent US8741910B2, “Soluble guanylate cyclase activators” (Merck Sharp & Dohme Corp., priority 2008, dated 2014) can be followed below.

The target in this assay is T1, sGC α1/β1 heterodimer (Homo sapiens, UniProt Q02108+Q02153).
T1 construct: expressed in transfected cells; host or cells: CHO-K1 (clone #7, CHO-K1/sGC)
T1 sequence (Q02108 1-690): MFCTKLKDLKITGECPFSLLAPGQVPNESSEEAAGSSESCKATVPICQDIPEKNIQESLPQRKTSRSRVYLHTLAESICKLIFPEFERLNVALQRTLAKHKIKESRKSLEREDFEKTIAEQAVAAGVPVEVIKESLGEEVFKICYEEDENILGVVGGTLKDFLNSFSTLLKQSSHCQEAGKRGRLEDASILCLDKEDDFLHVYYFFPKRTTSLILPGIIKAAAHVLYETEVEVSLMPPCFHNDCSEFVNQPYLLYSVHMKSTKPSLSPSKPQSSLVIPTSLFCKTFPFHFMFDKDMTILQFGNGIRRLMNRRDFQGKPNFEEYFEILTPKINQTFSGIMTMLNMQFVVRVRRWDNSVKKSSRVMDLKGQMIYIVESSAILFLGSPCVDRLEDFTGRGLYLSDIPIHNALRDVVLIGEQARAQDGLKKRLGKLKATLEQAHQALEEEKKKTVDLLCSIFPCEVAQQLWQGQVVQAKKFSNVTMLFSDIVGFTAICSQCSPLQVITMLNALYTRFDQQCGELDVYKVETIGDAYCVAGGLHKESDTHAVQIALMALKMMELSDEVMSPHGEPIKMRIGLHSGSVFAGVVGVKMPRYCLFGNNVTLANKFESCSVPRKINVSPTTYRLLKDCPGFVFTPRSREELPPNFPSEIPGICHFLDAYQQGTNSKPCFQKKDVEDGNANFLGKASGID
T1 sequence (Q02153 1-619): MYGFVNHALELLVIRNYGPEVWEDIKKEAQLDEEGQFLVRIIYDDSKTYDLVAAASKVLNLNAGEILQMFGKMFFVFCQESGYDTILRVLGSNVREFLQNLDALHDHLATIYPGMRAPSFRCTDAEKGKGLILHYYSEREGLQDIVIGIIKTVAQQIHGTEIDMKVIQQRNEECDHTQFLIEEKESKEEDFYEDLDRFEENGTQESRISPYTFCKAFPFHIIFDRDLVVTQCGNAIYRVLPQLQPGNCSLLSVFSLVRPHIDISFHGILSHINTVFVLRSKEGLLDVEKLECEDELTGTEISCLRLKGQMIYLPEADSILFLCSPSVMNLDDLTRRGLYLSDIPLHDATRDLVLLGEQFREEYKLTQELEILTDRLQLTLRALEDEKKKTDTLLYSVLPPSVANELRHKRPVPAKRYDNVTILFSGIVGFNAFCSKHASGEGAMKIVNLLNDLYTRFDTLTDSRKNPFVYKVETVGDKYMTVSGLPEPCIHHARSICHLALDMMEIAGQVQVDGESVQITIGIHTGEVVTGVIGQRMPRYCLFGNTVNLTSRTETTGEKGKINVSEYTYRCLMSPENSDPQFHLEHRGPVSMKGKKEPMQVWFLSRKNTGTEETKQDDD
The experiment in a line: Cell-Based sGC Functional Assay (CASA Assay). Conditions: CHO-K1/sGC cells, intracellular cGMP by HTRF, 1 hr at 37 °C. An excerpt:
Increases in cGMP levels affect several physiological processes including vasorelaxation through multiple downstream pathways. […] Heme-dependent activators (HDAs) preferentially activate sGC containing a ferrous heme group. To determine the effect of sGC activators on enzyme activity, the CASA assay was developed to monitor the generation of cGMP in a cell line that stably expresses the heterodimeric sGC protein.
A CHO-K1 cell line stably expressing the sGC α1/β1 heterodimer was generated using a standard transfection protocol. CHO-K1 cells were transfected with plasmids pIREShyghsGCα1 and pIRESneo-hsGCβ1 simultaneously using FUGENE reagent. Clones that stably express both subunits were selected with hygromycin and neomycin for ˜2 weeks. Clone #7 was chosen for the assay and was designated CHO-K1/sGC. CHO-K1/sGC cells were maintained in F-K12 medium containing 10% heat-inactivated Fetal Bovine Serum (FBS), 100 μg/mL penicillin/streptomycin, 0.5 mg/mL hygromycin and 0.25 mg/mL G418. […] IBMX (3-isobutyl-1-methylxanthin, 0.5 mM) was added to inhibit degradation of cGMP. Compounds were diluted from DMSO stock solutions and added to the assay at a final DMSO concentration of 1%. […] At the end of the incubation period, the reaction was terminated and the cells were lysed. The level of intracellular cGMP was determined using an HTRF-based assay kit (CisBio, 62GM2PEC), which detects the displacement of a fluorescence labeled cGMP from its specific antibody.
What is called EC50 is the concentration that produces a half-maximal response. A lower EC50 goes with an effect from little substance. As to `CC1(C)C(=O)Nc2nc(-c3nc(Cc4c(F)ccc(F)c4F)n4cc(Cl)ccc34)nc(N)c21` [Example 59, 4-amino-2-[6-chloro-3-(2,3,6-trifluorobenzyl)imidazo[1,5-a]pyridin-1-yl]-5,5-dimethyl-5,7-dihydro-6H-pyrrolo[2,3-d]pyrimidin-6-one], the response was half-maximal at 24 nM (EC50).
With `CC1(C)C(=O)Nc2nc(-c3nc(Cc4c(F)ccc(F)c4F)n4cc(F)ccc34)nc(N)c21` [Example 60, 4-amino-2-[6-fluoro-3-(2,3,6-trifluorobenzyl)imidazo[1,5-a]pyridin-1-yl]-5,5-dimethyl-5,7-dihydro-6H-pyrrolo[2,3-d]pyrimidin-6-one], the midpoint of the response, the EC50, lay at 31 nM.
In turn, `CC1(C)C(=O)Nc2nc(-c3nn(CCC(F)(F)C(F)(F)F)c4cc(Cl)ccc34)nc(N)c21` [Example 111, 4-amino-2-[6-chloro-1-(3,3,4,4,4-pentafluorobutyl)-1H-indazol-3-yl]-5,5-dimethyl-5,7-dihydro-6H-pyrrolo[2,3-d]pyrimidin-6-one] returned an EC50 of 83 nM.
